In patent US11524938B2, “Aromatic sulfonamide derivatives” (Bayer Pharma Aktiengesellschaft, priority 2016, dated 2022):
Values joined by “and” are separate entries in the source; they are usually repeats but may differ in a detail not shown here. Equal values may be shown once.

How the values were obtained:
Assay type in all cases: cell-based
human P2X4 [1] = target: T1, human P2X4 (Homo sapiens, UniProt Q99571); experiment: Human P2X4 HEK Cell FLIPR Assay; details: HEK293, HEK293 cells, agonist Bz-ATP at EC80; percentage of maximal inhibition; read-out: Human P2X4 HEK Cells (FLIPR Assay) avg Efficacy [%]
T1 sequence (Q99571 1-388): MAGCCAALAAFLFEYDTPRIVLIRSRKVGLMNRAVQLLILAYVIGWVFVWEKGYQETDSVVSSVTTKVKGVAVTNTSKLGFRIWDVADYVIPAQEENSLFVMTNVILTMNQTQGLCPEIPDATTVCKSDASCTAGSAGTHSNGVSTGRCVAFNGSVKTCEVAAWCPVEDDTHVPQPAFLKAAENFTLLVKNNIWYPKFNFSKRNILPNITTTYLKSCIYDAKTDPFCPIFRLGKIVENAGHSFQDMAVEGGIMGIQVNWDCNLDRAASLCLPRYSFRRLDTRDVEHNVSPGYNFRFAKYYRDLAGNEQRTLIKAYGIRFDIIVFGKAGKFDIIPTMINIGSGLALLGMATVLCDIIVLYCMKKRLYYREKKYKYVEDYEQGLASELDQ
How it was run: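 Calcium flux read by FLIPR for 120 sec after Bz-ATP challenge at EC80 (established each assay day), following 30 min room-temperature compound preincubation in dye-loaded stable human P2X4 HEK293 cells. Peak RFU over basal normalized to agonist control; IC50, maximal inhibition and Hill coefficient from triplicate means.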

endogenous P2X4 channels = target: T2, endogenous P2X4 channels (Homo sapiens, UniProt Q99571); experiment: Human Monocyte P2X4 Assay (FLIPR); details: primary human monocytes, 3 μM BzATP, one value per donor
T2 construct: measure calcium influx through endogenous P2X4 channels into primary human monocytes
T2 sequence (Q99571 1-388): T1 sequence (Q99571 1-388)
Method: The principle of the assay is to measure calcium influx through endogenous P2X4 channels into primary human monocytes, following activation by 2′,3′-O-(4-benzoyl-benzoyl)-ATP (Bz-ATP). Intracellular calcium concentration changes were measured with a Flipr® (Molecular Devices) device using a calcium sensitive dye (Fluo-8). In primary monocytes P2X4 is located at the lysosome membrane, therefore exocytosis has to be triggered to expose P2X4 at the cellular membrane.
Human peripheral blood mononuclear cells (PBMCs) from anticoagulated blood (blood cells, BC) were isolated via density gradient centrifugation. Whole blood was diluted 1:3 with PBS. Samples of 30 mL were layered carefully on top of 15 mL Biocoll (BIOCHROM) in 50 mL centrifuge tubes (Falcon). Tubes were centrifuged at 914×g for 25 min at RT without brake. The PBMC layer was removed with a 10 mL pipette and transferred into tubes with ice-cold PBS in a total volume of 50 mL. Cells were washed twice by pelleting at 300×g at 4° C., for 10 min and for 5 min respectively. PBMCs were re-suspended in 10 mL medium (X-vivo, Biozym Scientific) and counted in a Neubauer chamber.
Monocytes were isolated by negative selection using the Monocyte isolation kit II from Miltenyi (#130-091-153) according to the instructions. Isolation should be done fast and cells and solutions should be kept on ice at any time. PBMCs in batches of 10 exp8 cells were pelleted (300×g, 10 min) and re-suspended with 300 μL MACS buffer in a 50 mL Falcon tube. FcR Blocking reagent (100 μl) and Biotin-Ab (100 μl) were added, mixed and incubated on ice for 10 min. MACS buffer (300 μL) and anti-Biotin Micro-beads (100 μL) were added, mixed and incubated on ice for 15 min. Cells were washed by pelleting (300×g for 10 min) and re-suspended in 500 μL MACS buffer. For each batch one separation column was placed in the MACS separator and rinsed with 3 mL MACS buffer. The cell suspension was added to the column, followed by 3×3 mL MACS buffer for washing, and the eluent containing the monocytes was collected. Cells were pelleted (300×g for 10 min), re-suspended in X-vivo medium and counted. Monocytes were seeded into fibronectin-coated micro-plates (384-well, black, flat transparent bottom; Corning #3848) at a density of 30,000 cells/well in 50 μL, and cultivated over night (37° C., 5% CO2).
Test substances were dissolved in 100% DMSO at a stock concentration of 10 mM and stored at −20° C. in aliquots. Serial dilutions (2×) were prepared in DMSO and diluted 500× with assay buffer to generate the antagonist plate. In the Flipr measurement, 10 μL per well were transferred (4× dilution) and a final top concentrations of 5 μM and 0.05% DMSO were obtained in the assay. Agonist BzATP was stored at 10 mM in aliquots and diluted to an intermediate concentration of 15 μM to generate the agonist plate. In the Flipr measurement, 10 μL per well were transferred (5× dilution) so that a final assay concentration of 3 μM was obtained.
For the experiment, the medium of the cell plate was discarded manually and 70 μL/well loading buffer was added and incubated for 1 h (37° C., 5% CO2). Loading buffer contained HBSS (w/o calcium/magnesium), 10 mM Hepes pH 7.4, 5 μM Fluo-8 (AM) (Tebu-bio) and 50 mM methylamine (Sigma) to trigger exocytosis. Loading buffer was discarded manually and 30 μL/well low-calcium assay buffer (5 mM KCl, 145 mM NaCl, 0.5 mM CaCl2, 13 mM glucose, 10 mM Hepes pH 7.4) was added. The antagonist plate was transferred (10 μL/well) and after 15 min at RT the agonist plate (10 μL/well) was transferred.
Agonist addition was recorded for 240 seconds after a 10 second baseline. For analysis, a baseline correction was applied, and the maximum of the curve was extracted. Data were normalized towards 0% inhibition (signal at 3 μM BzATP) and 100% inhibition (absence of BzATP stimulation) and fitted with a four-parameter sigmoidal inhibition curve using Prism GraphPad to obtain IC50 values.

human P2X4 [2] = target: T1, human P2X4; experiment: FLIPR assay, human P2X4 1321N1 Astrocytoma cells; details: agonist Mg-ATP 0.5 μM (EC80)
Method: (§1) 1321N1 Astrocytoma cells stably expressing human P2X4 or rat P2X4 or mouse P2X4 were plated in Collagen I TC-treated microplate at a seeding density of 10000 cells/well and incubated overnight. P2X4 function was assessed by measuring intracellular calcium changes using the calcium-chelating dye Fluo8-AM (Molecular Devices) on a fluorescent imaging plate reader (FLEX/FLIPR station; Molecular Devices). On the day of the assay, the medium was removed and the cells were incubated for 30 min at 37 °C and 5% CO2 in 30 μL of dye buffer (Hank's balanced salt solution, 10 mM HEPES, 1.8 mM CaCl2, 1 mM MgCl2, 2 mM probenecid, 5 mM D-glucose monohydrate, 5 μM Fluo8-AM, pH=7.4). Compounds diluted in probenecid buffer (Hank's balanced salt solution, 10 mM HEPES, 1.8 mM CaCl2, 1 mM MgCl2, 2 mM probenecid, 5 mM D-glucose monohydrate, pH=7.4) were added in a volume of 10 μL and allowed to incubate for 30 min at room temperature. The final assay DMSO concentration was 0.25%. The agonist, Mg-ATP (Sigma), was added in a volume of 10 μL at a concentration representing the EC80 value. EC80 was determined to be 0.5 μM for human and mouse P2X4 and 5 μM for rat P2X4. The fluorescence was measured for an interval of 120 sec at 2 sec intervals. The excitation and emission wavelengths used to monitor fluorescence were 470-495 nm and 515-575 nm, respectively. The data was analyzed based on the increase in peak relative fluorescence units (RFU) compared to the basal fluorescence and the data was normalized to the agonist control. The compounds were tested in triplicates per plate and mean values were plotted in Excel XLFit to determine IC50 values, percentage of maximal inhibition and the Hill coefficients.

rat P2X4 = target: T3, rat P2X4 (Rattus norvegicus, UniProt P51577); experiment: FLIPR assay, rat P2X4 1321N1 Astrocytoma cells; details: agonist Mg-ATP 5 μM (EC80)
T3 sequence (P51577 1-388): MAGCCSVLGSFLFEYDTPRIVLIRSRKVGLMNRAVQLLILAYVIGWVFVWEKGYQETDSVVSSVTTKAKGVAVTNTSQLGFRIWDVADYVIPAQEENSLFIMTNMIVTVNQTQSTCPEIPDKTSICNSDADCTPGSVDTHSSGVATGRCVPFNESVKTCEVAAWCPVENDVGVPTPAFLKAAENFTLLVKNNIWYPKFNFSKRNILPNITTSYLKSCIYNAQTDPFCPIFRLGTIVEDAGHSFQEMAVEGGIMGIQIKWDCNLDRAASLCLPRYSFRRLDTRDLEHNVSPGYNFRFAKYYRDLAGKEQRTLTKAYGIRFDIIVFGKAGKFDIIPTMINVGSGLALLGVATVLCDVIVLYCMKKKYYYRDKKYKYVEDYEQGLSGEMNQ
Method: as §1

mouse P2X4 = target: T4, mouse P2X4 (Mus musculus, UniProt Q9JJX6); experiment: FLIPR assay, mouse P2X4 1321N1 Astrocytoma cells; details: agonist Mg-ATP 0.5 μM (EC80)
T4 sequence (Q9JJX6 1-388): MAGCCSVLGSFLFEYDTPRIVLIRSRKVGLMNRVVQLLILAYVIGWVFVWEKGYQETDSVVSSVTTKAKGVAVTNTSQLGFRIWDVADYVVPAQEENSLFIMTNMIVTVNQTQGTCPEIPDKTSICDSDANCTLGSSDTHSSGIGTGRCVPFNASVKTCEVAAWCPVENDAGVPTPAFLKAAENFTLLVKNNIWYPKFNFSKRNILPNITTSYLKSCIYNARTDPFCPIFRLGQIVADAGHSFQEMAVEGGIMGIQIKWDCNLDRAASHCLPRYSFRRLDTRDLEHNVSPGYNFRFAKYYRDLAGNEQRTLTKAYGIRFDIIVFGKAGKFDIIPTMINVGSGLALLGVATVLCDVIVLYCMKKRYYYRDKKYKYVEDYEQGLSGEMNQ
Method: as §1

With `COc1ccc(CC(=O)Nc2ccc(-n3cc(Cl)cn3)c(S(N)(=O)=O)c2)cc1` [Example 170, N-[4-(4-Chloro-1H-pyrazol-1-yl)-3-sulfamoylphenyl]-2-(4-methoxyphenyl)acetamide] as the compound, how does the Emax (human P2X4 [1]) read?
The Emax was 70%.

And the “Human P2X4 Monocytes (FLIPR Assay) Efficacy for different donors” value (“Human P2X4 Monocytes … for different donors” below) (endogenous P2X4 channels)?
Its value is 69% and 54%.

How did the Emax (human P2X4 [1]) turn out when `NS(=O)(=O)c1cc(NC(=O)Cc2ccccc2Cl)ccc1-n1cnc(Cl)n1` [Example 24, 2-(2-Chlorophenyl)-N-[4-(3-chloro-1H-1,2,4-triazol-1-yl)-3-sulfamoylphenyl]-acetamide] was run?
Its Emax is 92%.

What about the “Human P2X4 Monocytes … for different donors” value (endogenous P2X4 channels) of the same compound?
The value was 77% and 88%.

For `NS(=O)(=O)c1cc(NC(=O)Cc2ccccc2Cl)cnc1-n1cc(Cl)cn1` [Example 387, 2-(2-Chlorophenyl)-N-[6-(4-chloro-1H-pyrazol-1-yl)-5-sulfamoylpyridin-3-yl]acetamide], which Emax (human P2X4 [1]) is on record?
The Emax was 73%.

What about the “Human P2X4 Monocytes … for different donors” value (endogenous P2X4 channels) of the same compound?
Its value is 51%.

Which Emax (human P2X4 [1]) does the source give for `NS(=O)(=O)c1cc(NC(=O)Cc2ccccc2Cl)cnc1-n1cc(C(F)(F)F)cn1` [Example 380, 2-(2-Chlorophenyl)-N-{5-sulfamoyl-6-[4-(trifluoromethyl)-1H-pyrazol-1-yl]pyridin-3-yl}acetamide] here?
Its Emax is 69%.

What about the “Human P2X4 Monocytes … for different donors” value (endogenous P2X4 channels) of the same compound?
The value was 32% and 107%.

`NS(=O)(=O)c1cc(NC(=O)Cc2ccccc2Cl)ccc1-n1cc(Br)cn1` [Example 28, N-[4-(4-Bromo-1H-pyrazol-1-yl)-3-sulfamoylphenyl]-2-(2-chlorophenyl)acetamide] was tested. Which Emax (human P2X4 [1]) did it give?
The Emax was 90%.

And the “Human P2X4 Monocytes … for different donors” value (endogenous P2X4 channels)?
The value was 64% and 90%.

Which Emax (human P2X4 [1]) does the source give for `NS(=O)(=O)c1cc(NC(=O)Cc2ccccc2F)cnc1-c1cnn(C(F)F)c1` [Example 321, N-{6-[1-(Difluoromethyl)-1H-pyrazol-4-yl]-5-sulfamoylpyridin-3-yl}-2-(2-fluorophenyl)acetamide] here?
The Emax was 84%.

And the “Human P2X4 Monocytes … for different donors” value (endogenous P2X4 channels)?
Its value is 34% and 46% and 95%.

What about the Emax (endogenous P2X4 channels; read-out: Human P2X4 Monocytes (FLIPR Assay) Efficacy for different donors) of the same compound?
Its Emax is 49%.

And the IC50 (endogenous P2X4 channels; read-out: Human P2X4 Monocytes (FLIPR Assay) IC50 for different donors)?
Its IC50 is 0.157 µM.

Which results are given for `NS(=O)(=O)c1cc(NC(=O)Cc2ccccc2Cl)ccc1-n1cc(F)cn1` [Example 26, 2-(2-Chlorophenyl)-N-[4-(4-fluoro-1H-pyrazol-1-yl)-3-sulfamoylphenyl]acetamide]?
Emax (human P2X4 [1]): 85%; Human P2X4 Monocytes (FLIPR Assay) Efficacy for different donors (endogenous P2X4 channels): 88%

What does the source list for `NS(=O)(=O)c1cc(NC(=O)Cc2ccccc2Cl)ccc1-n1cc(C(F)(F)F)cn1` [Example 19, 2-(2-Chlorophenyl)-N-{3-sulfamoyl-4-[4-(trifluoromethyl)-1H-pyrazol-1-yl]phenyl}acetamide]?
Emax (human P2X4 [1]): 71%; Human P2X4 1321N1 Astrocytoma Cells (FLIPR Assay) avg Efficacy [%] (human P2X4 [2]): 60%; Rat P2X4 1321N1 Astrocytoma Cells (FLIPR Assay) avg Efficacy [%] (rat P2X4): 57%; Mouse P2X4 1321N1 Astrocytoma Cells (FLIPR Assay) avg Efficacy [%] (mouse P2X4): 69%
